The values that follow come from patent US20070043104A1, “UII-modulating compounds and their use” (priority 2005, published 2007).

The term pEC50 denotes the negative decadic logarithm of the EC50, by convention in mol/L. Read a high pEC50 as a low EC50. One may read the EC50 as the concentration at which the effect is half-maximal. A low value points to greater potency.

SMILES strings stand for the structures. Counter-ions that a name gives are not always drawn.

For this experiment, the target named is T1, human urotensin II receptor (Homo sapiens, UniProt Q9UKP6).
T1 construct: expressed in transfected cells; host or cells: NIH3T3 cells
T1 sequence (Q9UKP6 1-389): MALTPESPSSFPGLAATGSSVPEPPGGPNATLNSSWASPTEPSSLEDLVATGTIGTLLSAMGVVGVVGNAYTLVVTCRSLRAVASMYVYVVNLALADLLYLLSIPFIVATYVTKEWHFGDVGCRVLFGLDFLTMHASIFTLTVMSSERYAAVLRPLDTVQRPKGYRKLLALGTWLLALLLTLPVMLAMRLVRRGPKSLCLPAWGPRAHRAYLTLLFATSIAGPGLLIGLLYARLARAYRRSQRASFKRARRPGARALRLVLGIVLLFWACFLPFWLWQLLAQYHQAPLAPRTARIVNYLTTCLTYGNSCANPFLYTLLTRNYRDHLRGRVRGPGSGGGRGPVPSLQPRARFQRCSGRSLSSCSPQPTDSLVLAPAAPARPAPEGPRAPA
Briefly: Receptor Selection and Amplification (R-SAT) functional assay, NIH3T3 cells transfected with human urotensin II receptor and β-galactosidase marker. The class given is cell-based. The note with it: for Emax: NIH3T3, Table 3, percent activation normalized to the reference ligand assigned 100%, read-out: Efficacy; for pEC50 / EC50: Table 3, negative of the log EC50 in molarity, average ± standard deviation (or range) of determinations, eight doses in triplicate. The procedure:
The functional receptor assay, Receptor Selection and Amplification Technology (R-SAT™), was used (with minor modifications from the procedure described previously (Brann, M. R. U.S. Pat. No. 5,707,798, 1998; Chem. Abstr. 1998, 128, 111548) to screen compounds for efficacy at the UII receptor. The RSAT assay was conducted as described herein.
Briefly, NIH3T3 cells were grown in tissue culture treated rollerbottles to 40-80% confluence in Dulbecco's modified Eagle's medium (DMEM) supplemented with 10% bovine calf serum (Hyclone) and 1% penicillin/streptomycin/glutamine (Invitrogen). Cells were transfected for 12-18 hours with the human urotensin II receptor and the β-galactosidase marker. After transfection, the cells were trypsinized, harvested and frozen in DMEM containing 10% DMSO. Frozen cells were later thawed and tested for a response to a control compound to perform quality control before initiation of pharmacological testing, ensuring the correct pharmacological response and sufficient sensitivity. To initiate the pharmacological assay, cells were thawed rapidly and prepared in DMEM media containing 0.4% calf serum (Hyclone), 30% UltraCulture (Biowhittaker), and 1% penicillin/streptomycin/glutamine (Invitrogen), and then plated at 10,000-40,000 cells per well of a 96½ area plate that contained either the test compounds or reference ligands. Cells were then grown in a humidified atmosphere with 5% ambient CO2 for five days. Media was then removed from the plates and marker gene activity was measured by the addition of the beta-galactosidase substrate ONPG (in PBS with 5% NP-40). The resulting colorimetric reaction was measured in a spectrophotometric plate reader (Titertek Inc.) at […].
pEC50 represents the negative logarithm of the concentration of ligand that caused 50% activation of the basal receptor response. Percent activation was calculated as the difference between the absorbance measurements in the absence of added ligand compared with that in the presence of saturating concentrations of ligand normalized to the absorbance difference for the reference ligand, which was assigned a value of 100%.
Results were determined in R-SAT assays and are expressed as pEC50, the negative of the log EC50 in molarity. Results are the average±standard deviation of 2-X determinations of the EC50 where each compound was tested in eight doses in triplicate.

Consider `CN(C)CCC(OC(=O)c1ccc(-c2ccccc2)cc1)c1ccc(Cl)cc1.Cl` (stereo not shown) [4m, 1-(4-Chlorophenyl)-3-dimethylamino-propyl 4-phenyl-benzoate HCl], for which the Emax came to 53 ± 27% and the pEC50 worked out at 6.28 ± 0.14.
Take `CN(C)CCC(OC(=O)c1cc2ccccc2n1C)c1ccc(Cl)cc1` (stereo not shown) [4n, 1-(4-Chlorophenyl)-3-dimethylamino-propyl 1-methyl-indole-2-carboxylate HCl]: the Emax turned out to be 104 ± 34% and the EC50 is 1910 nM.
`CN(C)CCC(OC(=O)c1cn(C)c2ccccc12)c1ccc(Cl)cc1` (stereo not shown) [4o, 1-(4-Chlorophenyl)-3-dimethylamino-propyl 1-methyl-indole-3-carboxylate HCl]: the Emax stood at 115 ± 71% and the EC50 is 1620 nM.
`COc1ccc(C(=O)OC(CCN(C)C)c2ccc(Cl)cc2)cc1` (stereo not shown) [4p, 1-(4-Chlorophenyl)-3-dimethylamino-propyl 4-methoxy-benzoate oxalate]: the Emax was in the range of 52 to 101% and the EC50 was 1550 to 3720 nM.
Consider `CN(C)CCC(OC(=O)c1ccc(C(F)(F)F)cc1)c1ccc(Cl)cc1` (stereo not shown) [4q, 1-(4-Chlorophenyl)-3-dimethylamino-propyl 4-trifluoromethyl-benzoate oxalate], for which the Emax fell in the range of 36 to 38% and the EC50 is 1170 to 2090 nM.
`CN(C)CCC(NC(=O)c1ccccc1)c1ccc(Cl)cc1.Cl` (stereo not shown) [5a, N-[1-(4-Chlorophenyl)-3-dimethylamino-propyl]-benzamide HCl]: the Emax amounted to 158 ± 39% and the pEC50 is reported as 5.85 ± 0.01.
In the same order, the values of `Cc1ccccc1C(=O)NC(CCN(C)C)c1ccc(Cl)cc1.O=C(O)C(=O)O` (stereo not shown) [5b, N-[1-(4-Chlorophenyl)-3-dimethylamino-propyl]-2-methyl-benzamide oxalate] are 175 ± 15% and 5.45 ± 0.04.
Take `CCc1ccccc1C(=O)NC(CCN(C)C)c1ccc(Cl)cc1` (stereo not shown) [5c, N-[1-(4-Chlorophenyl)-3-dimethylamino-propyl]-2-ethyl-benzamide oxalate]: the Emax worked out at 140 ± 14% and it took 1020 nM to reach a half-maximal effect (EC50).
As to `COc1ccc(C(=O)NC(CCN(C)C)c2ccc(Cl)cc2)cc1.O=C(O)C(=O)O` (stereo not shown) [5d, N-[1-(4-Chlorophenyl)-3-dimethylaminopropyl]-4-methoxy-benzamide oxalate], the Emax was determined as 148 ± 33% and the pEC50 is reported as 5.87 ± 0.2.
In the same order, the values of `CN(C)CCC(NC(=O)c1ccc(N(C)C)cc1)c1ccc(Cl)cc1.O=C(O)C(=O)O` (stereo not shown) [5e, N-[1-(4-Chlorophenyl)-3-dimethylaminopropyl]-4-dimethylamino-benzamide oxalate] are 145 ± 25% and 5.87 ± 0.17.
For `Cc1cccc(C(=O)NC(CCN(C)C)c2ccc(Cl)cc2)c1C.O=C(O)C(=O)O` (stereo not shown) [5f, N-[1-(4-Chlorophenyl)-3-dimethylamino-propyl]-2,3-dimethyl-benzamide oxalate] the same measures were 159 ± 1% and 5.44 ± 0.08.
For the molecule `COc1cccc(C(=O)NC(CCN(C)C)c2ccc(Cl)cc2)c1C.O=C(O)C(=O)O` (stereo not shown) [5g, N-[1-(4-Chlorophenyl)-3-dimethylamino-propyl]-3-methoxy-2-methyl-benzamide oxalate], the Emax is 179 ± 11% and the pEC50 stood at 5.37 ± 0.14.
For `Cc1c(Cl)cccc1C(=O)NC(CCN(C)C)c1ccc(Cl)cc1.O=C(O)C(=O)O` (stereo not shown) [5h, N-[1-(4-Chlorophenyl)-3-dimethylamino-propyl]-3-chloro-2-methyl-benzamide oxalate] the same measures were 142 ± 14% and 5.76 ± 0.13.
As to `Cc1ccc(C(=O)NC(CCN(C)C)c2ccc(Cl)cc2)c(C)c1.O=C(O)C(=O)O` (stereo not shown) [5i, N-[1-(4-Chlorophenyl)-3′-dimethylamino-propyl]-2,4-dimethyl-benzamide oxalate], the Emax worked out at 147 ± 29% and the pEC50 is on record as 5.81 ± 0.06.
For the molecule `Cc1ccc(C)c(C(=O)NC(CCN(C)C)c2ccc(Cl)cc2)c1.O=C(O)C(=O)O` (stereo not shown) [5j, N-[1-(4-Chlorophenyl)-3-dimethylamino-propyl]-2,5-dimethyl-benzamide oxalate], the Emax worked out at 164 ± 20% and the pEC50 was found to be 5.54 ± 0.04.
On to `Cc1cccc(Cl)c1C(=O)NC(CCN(C)C)c1ccc(Cl)cc1.O=C(O)C(=O)O` (stereo not shown) [5k, N-[1-(4-Chlorophenyl)-3-dimethylamino-propyl]-6-chloro-2-methyl-benzamide oxalate], for which the Emax is 105 ± 4% and the pEC50 amounted to 5.29 ± 0.09.
Turning to `CN(C)CCC(NC(=O)c1ccc2c(c1)OCO2)c1ccc(Cl)cc1.O=C(O)C(=O)O` (stereo not shown) [5l, N-(1-(4-chlorophenyl)-3-(dimethylamino)propyl)benzo [d][1,3]dioxole-5-carboxamide oxalate], the Emax came out at 148 ± 32% and the pEC50 amounted to 5.67 ± 0.17.
As to `Cc1cc(C)c(C(=O)NC(CCN(C)C)c2ccc(Cl)cc2)cc1C.O=C(O)C(=O)O` (stereo not shown) [5m, N-[1-(4-Chlorophenyl)-3-dimethylaminopropyl]-2,4,5-trimethyl-benzamide oxalate], the Emax came to 152 ± 20% and the pEC50 was 5.75 ± 0.22.
Take `CN(C)CCC(NC(=O)c1ccc2ccccc2c1)c1ccc(Cl)cc1` (stereo not shown) [5n, N-[1-(4-Chlorophenyl)-3-dimethylamino-propyl]-2-naphthyl-carboxamide oxalate]: the Emax was found to be 109 ± 18% and the response was half-maximal at 407 nM (EC50).
Regarding `CN(C)CCC(NC(=O)c1ccc(-c2ccccc2)cc1)c1ccc(Cl)cc1.O=C(O)C(=O)O` (stereo not shown) [5o, N-[1-(4-Chlorophenyl)-3-dimethylamino-propyl]-4-phenyl-benzamide oxalate], the Emax is 116 ± 11% and the pEC50 is 7.11 ± 0.01.
In the same order, the values of `CN(C)CCC(NC(=O)c1ccc(Oc2ccccc2)cc1)c1ccc(Cl)cc1.O=C(O)C(=O)O` (stereo not shown) [5p, N-[1-(4-Chlorophenyl)-3-dimethylaminopropyl]-4-phenoxy-benzamide oxalate] are 91 ± 17% and 7.18 ± 0.2.
With `CN(C)CCC(NC(=O)c1ccc(C(F)(F)F)cc1)c1ccc(Cl)cc1` (stereo not shown) [5q, N-[1-(4-Chlorophenyl)-3-dimethylaminopropyl]-4-trifluoromethyl-benzamide oxalate], the Emax lay within 100 to 127% and the EC50 is 66.1 to 102 nM.
As for `CN(C)CCC(NC(=O)Cc1ccccc1)c1ccc(Cl)cc1.O=C(O)C(=O)O` (stereo not shown) [5r, N-[1-(4-Chlorophenyl)-3-dimethylaminopropyl]-2-phenyl-acetamide oxalate], the Emax was found to be 154 ± 34% and the pEC50 is given as 5.71 ± 0.16.
In the same order, the values of `Cc1ccc(S(=O)(=O)NC(CCN(C)C)c2ccc(Cl)cc2)cc1.O=C(O)C(=O)O` (stereo not shown) [6a, N-[1-(4-Chlorophenyl)-3-dimethylaminopropyl]-4-methyl-benzenesulfonamide oxalate] are 74 ± 10% and 5.19 ± 0.09.
`Cc1ccccc1NC(=O)OC(CCN(C)C)c1ccc(Cl)cc1` (stereo not shown) [7a, N-[1-(4-Chlorophenyl)-3-dimethylaminopropyloxycarbonyl]-2-methylphenyl-amine]: the Emax came to 170 ± 21% and the negative-log EC50 (pEC50) came out at 5.41 ± 0.07.
Regarding `COc1cccc(NC(=O)OC(CCN(C)C)c2ccc(Cl)cc2)c1` (stereo not shown) [7b, N-[1-(4-Chlorophenyl)-3-dimethylaminopropyloxycarbonyl]-3-methoxyphenyl-amine], the Emax came out at 133 ± 36% and the pEC50 was 5.95 ± 0.09.
